Measurements taken from patent US20230346831A1, “METHODS FOR TREATING […] USING LOW DOSE CARBON MONOXIDE” (priority 2020, published 2023).
Several values for one entry are separate records, joined by “and”; a condition that tells them apart may be missing. Equal values may be shown once.

Tested on: MCF7/TGL cells
Test: metabolomic assay (polar metabolite profiling, mass spectrometry)
Assay type: cell-based, human
Conditions: MCF7/TGL cells treated with CO, replicates CO 1-3
Procedure: Extraction and analysis were performed with the same parameters as the method disclosed in FIG. 7.
7 × 10^6 cells were seeded in 10-cm cell culture plates with DMEM containing 10% FBS, 0.2 mM L-glutamine and 1% penicillin/streptomycin. Additionally, MCF7/TGL/pQ was cultured in media containing 0.5 µgml^-1 puromycin and 25 mM HEPES. After 16 hours of incubation, metabolites were extracted from the cells using 80% methanol. The remaining steps were carried out by Weill Cornell Medicine Proteomics and Metabolomics Core Facility according to M. D. Goncalves et al., Proc Natl Acad Sci USA 115, E743-E752 (2018). All data analyses were done using MetaboAnalyst 4.0 (www.metaboanalyst.ca/).
To investigate whether 250 ppm CO mimics hypoxia, the HiF1α protein levels were examined in CO treated MCF7/TGL and MDA-MB-231/TGL cells. […] To determine whether 250 ppm CO affects metabolism, polar metabolites were profiled using two breast cancer cell lines, MCF7/TGL and MDA-MB-231/TGL (FIGS. 7-9).

For `[C-]#[O+]` [CO, Carbon monoxide], the “Peak Height 2-Ketobutyric acid” value (HMDB00005) was 4,031,318 and 4,391,029 and 5,247,754, the “Peak Height Deoxyuridine” value (HMDB00012) was 4,052 and 3,614 and 4,205 and the “Peak Height Carnosine” value (HMDB00033) was 2,611,797 and 2,457,728 and 2,635,558. For the same compound, the “Peak Height Adenine” value (HMDB00034) was 319,396 and 405,129 and 608,706, the “Peak Height Dihydrobiopterin” value (HMDB00038) was 37,904,750 and 45,778,470 and 54,551,140 and the “Peak Height Betaine” value (HMDB00043) was 211,641,600 and 205,281,000 and 256,902,700. The “Peak Height Ascorbic acid” value (HMDB00044) was 1,179,857 and 2,029,092 and 5,154,497, the “Peak Height Adenosine monophosphate” value (HMDB00045) was 595,508 and 473,948 and 497,428 and the “Peak Height Adenosine” value (HMDB00050) was 14,622 and 14,037 and 23,296. For the same compound, the “Peak Height Argininosuccinic acid” value (HMDB00052) was 180,070 and 286,271 and 472,100, the “Peak Height L-Carnitine” value (HMDB00062) was 275,929,100 and 289,061,800 and 291,180,600 and the “Peak Height Creatine” value (HMDB00064) was 394,311,900 and 394,104,400 and 478,205,800. The “Peak Height cis-Aconitic acid” value (HMDB00072) was 11,654,680 and 13,826,410 and 17,813,720, the “Peak Height Cytidine triphosphate” value (HMDB00082) was 248,084 and 155,802 and 221,285 and the “Peak Height Glycerophosphocholine” value (HMDB00086) was 299,915,900 and 348,438,900 and 459,259,100. For the same compound, the “Peak Height Cytidine” value (HMDB00089) was 104,165 and 69,105 and 173,745, the “Peak Height Dimethylglycine” value (HMDB00092) was 6,279,555 and 7,567,884 and 7,137,536 and the “Peak Height Citric acid” value (HMDB00094) was 83,266,830 and 83,863,100 and 100,258,700. The “Peak Height Cytidine monophosphate” value (HMDB00095) was 93,671 and 115,860 and 141,423, the “Peak Height Choline” value (HMDB00097) was 183,705,300 and 191,547,400 and 211,305,800 and the “Peak Height L-Cystathionine” value (HMDB00099) was 13,082,840 and 16,491,010 and 22,978,520. For the same compound, the “Peak Height D-Glucose” value (HMDB00122) was 24,253,400 and 27,009,740 and 49,287,950, the “Peak Height Glycine” value (HMDB00123) was 97,069,490 and 60,912,580 and 81,769,040 and the “Peak Height Fructose 6-phosphate” value (HMDB00124) was 689,466 and 869,013 and 1,084,547. For the same compound, the “Peak Height Glutathione” value (HMDB00125) was 166,253,500 and 185,818,800 and 224,175,500, the “Peak Height Glycerol3-phosphate” value (HMDB00126) was 242,288 and 358,077 and 520,107 and the “Peak Height D-Glucuronic acid” value (HMDB00127) was 193,639 and 229,627 and 245,391. The “Peak Height Fumaric acid” value (HMDB00134) was 5,149,166 and 6,086,688 and 8,204,115, the “Peak Height L-Glutamic acid” value (HMDB00148) was 344,240,500 and 392,276,300 and 563,702,200 and the “Peak Height Hypoxanthine” value (HMDB00157) was 207,108 and 78,064 and 86,812. The “Peak Height L-Tyrosine” value (HMDB00158) was 58,933,980 and 62,662,290 and 101,701,400, the “Peak Height L-Phenylalanine” value (HMDB00159) was 287,943,500 and 304,931,600 and 425,257,300 and the “Peak Height L-Alanine” value (HMDB00161) was 24,164,680 and 26,271,210 and 37,606,940. For the same compound, the “Peak Height L-Proline” value (HMDB00162) was 456,504,200 and 470,321,900 and 561,265,500, the “Peak Height L-Threonine” value (HMDB00167) was 103,403,600 and 114,367,100 and 144,573,600 and the “Peak Height L-Asparagine” value (HMDB00168) was 42,196,450 and 47,225,620 and 55,751,170. For the same compound, the “Peak Height L-Isoleucine” value (HMDB00172) was 339,480,000 and 333,493,200 and 481,854,600, the “Peak Height Inosinic acid” value (HMDB00175) was 22,764 and 28,902 and 46,283 and the “Peak Height L-Histidine” value (HMDB00177) was 295,632,700 and 322,360,800 and 456,145,200. The “Peak Height L-Lysine” value (HMDB00182) was 41,138,540 and 40,717,620 and 74,426,720, the “Peak Height Alpha-Lactose” value (HMDB00186) was 261,525 and 290,474 and 303,327 and the “Peak Height L-Serine” value (HMDB00187) was 22,682,210 and 24,881,370 and 27,375,240. For the same compound, the “Peak Height L-Lactic acid” value (HMDB00190) was 135,248,600 and 168,348,200 and 288,458,500, the “Peak Height L-Aspartic acid” value (HMDB00191) was 12,945,220 and 18,829,880 and 30,552,150 and the “Peak Height L-Acetylcarnitine” value (HMDB00201) was 191,662,400 and 208,376,400 and 217,883,700. For the same compound, the “Peak Height N6-Acetyl-L-lysine” value (HMDB00206) was 126,221 and 143,548 and 210,190, the “Peak Height Oxoglutaric acid” value (HMDB00208) was 24,674,800 and 27,743,170 and 32,411,680 and the “Peak Height Pantothenic acid” value (HMDB00210) was 49,604,040 and 57,015,540 and 93,443,310. The “Peak Height Myoinositol” value (HMDB00211) was 1,493,285 and 1,572,114 and 2,893,583, the “Peak Height Ornithine” value (HMDB00214) was 3,323,027 and 3,678,113 and 4,669,739 and the “Peak Height NADP” value (HMDB00217) was 35,994 and 44,669 and 56,121. The “Peak Height Orotic acid” value (HMDB00226) was 107,743 and 166,715, the “Peak Height Thiamine” value (HMDB00235) was 13,320,550 and 15,145,370 and 21,979,980 and the “Peak Height Pyruvic acid” value (HMDB00243) was 6,830,386 and 7,616,124 and 9,628,515. The “Peak Height Riboflavin” value (HMDB00244) was 8,515 and 36,944, the “Peak Height Taurine” value (HMDB00251) was 213,761,300 and 213,696,600 and 188,154,600 and the “Peak Height Succinic acid” value (HMDB00254) was 3,099,054 and 3,989,967 and 6,160,312. The “Peak Height Thymine” value (HMDB00262) was 7,867,191 and 9,149,847 and 12,133,270, the “Peak Height Phosphoenolpyruvic acid” value (HMDB00263) was 3,181,575 and 5,081,852 and 6,959,276 and the “Peak Height Pyroglutamic acid” value (HMDB00267) was 70,921,790 and 82,143,660 and 125,886,000. For the same compound, the “Peak Height Thymidine” value (HMDB00273) was 18,849 and 10,836 and 11,271, the “Peak Height Uridine triphosphate” value (HMDB00285) was 972,321 and 740,370 and 1,159,635 and the “Peak Height Uridine diphosphate glucose” value (HMDB00286) was 3,510,195 and 3,063,631 and 4,862,560. For the same compound, the “Peak Height Uridine 5′-monophosphate” value (HMDB00288) was 35,559 and 34,351 and 45,597, the “Peak Height Uric acid” value (HMDB00289) was 2,364,329 and 2,512,157 and 4,422,182 and the “Peak Height Uridine diphosphate-N-acetylglucosamine” value (HMDB00290) was 38,715,250 and 42,157,110 and 45,820,290. The “Peak Height Xanthine” value (HMDB00292) was 3,106,304 and 2,715,740 and 5,495,149, the “Peak Height Uridine 5′-diphosphate” value (HMDB00295) was 297,075 and 234,752 and 314,015 and the “Peak Height Uridine” value (HMDB00296) was 51,402 and 29,724 and 61,581. The “Peak Height Uracil” value (HMDB00300) was 621,176 and 684,209 and 956,261, the “Peak Height Urocanicacid” value (HMDB00301) was 330,874 and 577,556 and 198,149 and the “Peak Height 3-Hydroxymethylglutaric acid” value (HMDB00355) was 5,766,106 and 4,010,368 and 3,996,699. The “Peak Height Allantoin” value (HMDB00462) was 1,483,552 and 1,936,773 and 3,316,178, the “Peak Height Caprylic acid” value (HMDB00482) was 3,978,947 and 2,718,335 and 2,586,172 and the “Peak Height Aminoadipic acid” value (HMDB00510) was 5,713,433 and 5,346,300 and 7,560,774. The “Peak Height L-Arginine” value (HMDB00517) was 64,328,130 and 65,745,300 and 95,595,630, the “Peak Height Adenosine triphosphate” value (HMDB00538) was 1,853,382 and 1,283,500 and 2,002,755 and the “Peak Height Creatinine” value (HMDB00562) was 20,992,210 and 21,746,470 and 37,545,350. The “Peak Height Galactonic acid” value (HMDB00565) was 8,090,935 and 11,406,370 and 14,258,950, the “Peak Height D-Arabitol” value (HMDB00568) was 250,315 and 263,626 and 418,856 and the “Peak Height D-2-Hydroxyglutaric acid” value (HMDB00606) was 460,608 and 570,887 and 905,587. The “Peak Height Gluconic acid” value (HMDB00625) was 6,277,480 and 8,930,573 and 14,396,540.
